Each block holds one compound with its values, some of them ahead of it.
How the values were obtained:
[1] = biological target: Cyclin-dependent kinase 13 (Homo sapiens) (UniProt Q14004); test: Inhibition of human recombinant CHED at 500 nM in presence of ATP by radiometric assay relative to control
[2] = biological target: Serine/threonine-protein kinase PAK 4 (Homo sapiens) (UniProt O96013); test: Inhibition of human recombinant PAK4 at 500 nM related to control ULK1
[3] = biological target: T1, Tyrosine-protein kinase Mer (Homo sapiens) (UniProt Q12866); test: Inhibition of human recombinant MER at 500 nM in presence of ATP by radiometric assay relative to control
T1 sequence (whole entry): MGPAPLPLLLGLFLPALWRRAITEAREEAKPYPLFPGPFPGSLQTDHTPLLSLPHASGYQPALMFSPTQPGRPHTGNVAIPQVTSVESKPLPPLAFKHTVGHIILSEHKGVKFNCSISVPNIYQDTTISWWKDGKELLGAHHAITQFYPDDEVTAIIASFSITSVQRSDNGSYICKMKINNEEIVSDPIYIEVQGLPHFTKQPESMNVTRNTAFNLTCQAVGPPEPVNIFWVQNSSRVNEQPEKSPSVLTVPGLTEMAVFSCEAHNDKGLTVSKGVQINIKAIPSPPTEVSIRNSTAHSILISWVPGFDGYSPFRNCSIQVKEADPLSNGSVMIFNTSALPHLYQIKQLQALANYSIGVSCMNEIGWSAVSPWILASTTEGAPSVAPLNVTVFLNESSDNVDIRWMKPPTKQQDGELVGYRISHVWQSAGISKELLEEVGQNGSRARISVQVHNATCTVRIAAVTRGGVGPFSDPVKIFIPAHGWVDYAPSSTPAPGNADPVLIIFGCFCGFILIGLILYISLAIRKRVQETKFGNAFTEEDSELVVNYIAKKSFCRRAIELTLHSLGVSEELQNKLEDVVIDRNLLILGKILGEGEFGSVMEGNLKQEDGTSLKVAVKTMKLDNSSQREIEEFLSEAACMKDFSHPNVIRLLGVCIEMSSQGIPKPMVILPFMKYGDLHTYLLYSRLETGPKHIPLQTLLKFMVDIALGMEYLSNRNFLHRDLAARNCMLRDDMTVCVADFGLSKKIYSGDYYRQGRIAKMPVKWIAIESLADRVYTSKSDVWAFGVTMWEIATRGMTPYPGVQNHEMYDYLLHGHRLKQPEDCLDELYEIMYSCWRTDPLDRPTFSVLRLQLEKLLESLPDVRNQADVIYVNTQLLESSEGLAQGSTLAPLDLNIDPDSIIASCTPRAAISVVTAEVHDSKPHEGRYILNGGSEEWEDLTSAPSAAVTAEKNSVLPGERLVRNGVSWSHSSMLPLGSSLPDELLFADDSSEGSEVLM

[4] = biological target: T2, Tyrosine-protein kinase ZAP-70 (Homo sapiens) (UniProt P43403); test: Inhibition of human recombinant ZAP70 at 15 nM in presence of ATP by radiometric assay relative to control
T2 sequence (whole entry): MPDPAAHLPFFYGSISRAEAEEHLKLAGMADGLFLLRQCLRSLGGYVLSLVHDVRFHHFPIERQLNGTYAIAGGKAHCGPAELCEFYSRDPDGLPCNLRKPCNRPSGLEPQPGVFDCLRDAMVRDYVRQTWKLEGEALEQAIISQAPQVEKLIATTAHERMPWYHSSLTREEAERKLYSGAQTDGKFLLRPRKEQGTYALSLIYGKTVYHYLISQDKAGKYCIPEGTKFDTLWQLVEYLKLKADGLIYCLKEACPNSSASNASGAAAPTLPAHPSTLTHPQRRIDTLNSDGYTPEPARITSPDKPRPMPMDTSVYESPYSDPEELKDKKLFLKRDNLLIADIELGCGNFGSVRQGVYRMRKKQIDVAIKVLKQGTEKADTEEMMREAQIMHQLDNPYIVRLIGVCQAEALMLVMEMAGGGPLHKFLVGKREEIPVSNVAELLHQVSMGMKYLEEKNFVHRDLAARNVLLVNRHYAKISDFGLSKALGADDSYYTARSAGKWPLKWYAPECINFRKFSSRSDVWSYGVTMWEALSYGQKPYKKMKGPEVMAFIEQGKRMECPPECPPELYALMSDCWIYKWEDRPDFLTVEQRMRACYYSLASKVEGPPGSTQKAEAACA

[5] = biological target: Mitogen-activated protein kinase 1 (Homo sapiens) (UniProt P28482); test: Inhibition of human recombinant Erk2 at 15 nM related to control ULK1
Mitogen-activated protein kinase 1 (Homo sapiens), sequence (P28482 whole entry): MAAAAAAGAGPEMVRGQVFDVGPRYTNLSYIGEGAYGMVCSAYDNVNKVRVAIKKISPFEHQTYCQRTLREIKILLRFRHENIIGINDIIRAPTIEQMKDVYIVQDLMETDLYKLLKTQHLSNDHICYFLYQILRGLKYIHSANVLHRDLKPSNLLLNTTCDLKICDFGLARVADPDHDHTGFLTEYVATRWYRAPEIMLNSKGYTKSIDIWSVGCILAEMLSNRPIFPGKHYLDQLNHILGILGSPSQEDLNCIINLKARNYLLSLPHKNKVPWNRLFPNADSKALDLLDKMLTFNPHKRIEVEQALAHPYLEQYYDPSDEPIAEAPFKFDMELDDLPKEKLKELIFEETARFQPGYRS

[6] = biological target: T3, Protein kinase C zeta type (Homo sapiens) (UniProt Q05513); test: Inhibition of human recombinant PKCz at 40 nM related to control ULK1
T3 sequence (whole entry): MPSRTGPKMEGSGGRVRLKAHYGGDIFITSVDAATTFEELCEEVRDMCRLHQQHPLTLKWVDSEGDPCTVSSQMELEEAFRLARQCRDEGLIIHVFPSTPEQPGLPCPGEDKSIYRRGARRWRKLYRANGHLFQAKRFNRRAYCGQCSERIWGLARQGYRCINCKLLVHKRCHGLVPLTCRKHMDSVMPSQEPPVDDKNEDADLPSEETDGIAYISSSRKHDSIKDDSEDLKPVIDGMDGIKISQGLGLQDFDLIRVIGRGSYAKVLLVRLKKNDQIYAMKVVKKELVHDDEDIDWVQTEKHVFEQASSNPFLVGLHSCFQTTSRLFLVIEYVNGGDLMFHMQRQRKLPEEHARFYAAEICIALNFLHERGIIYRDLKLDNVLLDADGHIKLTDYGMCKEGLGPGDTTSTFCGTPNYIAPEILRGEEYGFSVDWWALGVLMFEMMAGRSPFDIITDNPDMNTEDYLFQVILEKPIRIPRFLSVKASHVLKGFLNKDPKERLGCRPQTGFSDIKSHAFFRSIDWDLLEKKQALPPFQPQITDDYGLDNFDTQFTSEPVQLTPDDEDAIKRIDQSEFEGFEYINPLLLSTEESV

[7] = biological target: Protein kinase C alpha type (Homo sapiens) (UniProt P17252); test: Inhibition of human recombinant PKCa at 40 nM in presence of ATP by radiometric assay relative to control

Cyclin-dependent kinase 13 (Homo sapiens), sequence (Q14004 whole entry, looked up): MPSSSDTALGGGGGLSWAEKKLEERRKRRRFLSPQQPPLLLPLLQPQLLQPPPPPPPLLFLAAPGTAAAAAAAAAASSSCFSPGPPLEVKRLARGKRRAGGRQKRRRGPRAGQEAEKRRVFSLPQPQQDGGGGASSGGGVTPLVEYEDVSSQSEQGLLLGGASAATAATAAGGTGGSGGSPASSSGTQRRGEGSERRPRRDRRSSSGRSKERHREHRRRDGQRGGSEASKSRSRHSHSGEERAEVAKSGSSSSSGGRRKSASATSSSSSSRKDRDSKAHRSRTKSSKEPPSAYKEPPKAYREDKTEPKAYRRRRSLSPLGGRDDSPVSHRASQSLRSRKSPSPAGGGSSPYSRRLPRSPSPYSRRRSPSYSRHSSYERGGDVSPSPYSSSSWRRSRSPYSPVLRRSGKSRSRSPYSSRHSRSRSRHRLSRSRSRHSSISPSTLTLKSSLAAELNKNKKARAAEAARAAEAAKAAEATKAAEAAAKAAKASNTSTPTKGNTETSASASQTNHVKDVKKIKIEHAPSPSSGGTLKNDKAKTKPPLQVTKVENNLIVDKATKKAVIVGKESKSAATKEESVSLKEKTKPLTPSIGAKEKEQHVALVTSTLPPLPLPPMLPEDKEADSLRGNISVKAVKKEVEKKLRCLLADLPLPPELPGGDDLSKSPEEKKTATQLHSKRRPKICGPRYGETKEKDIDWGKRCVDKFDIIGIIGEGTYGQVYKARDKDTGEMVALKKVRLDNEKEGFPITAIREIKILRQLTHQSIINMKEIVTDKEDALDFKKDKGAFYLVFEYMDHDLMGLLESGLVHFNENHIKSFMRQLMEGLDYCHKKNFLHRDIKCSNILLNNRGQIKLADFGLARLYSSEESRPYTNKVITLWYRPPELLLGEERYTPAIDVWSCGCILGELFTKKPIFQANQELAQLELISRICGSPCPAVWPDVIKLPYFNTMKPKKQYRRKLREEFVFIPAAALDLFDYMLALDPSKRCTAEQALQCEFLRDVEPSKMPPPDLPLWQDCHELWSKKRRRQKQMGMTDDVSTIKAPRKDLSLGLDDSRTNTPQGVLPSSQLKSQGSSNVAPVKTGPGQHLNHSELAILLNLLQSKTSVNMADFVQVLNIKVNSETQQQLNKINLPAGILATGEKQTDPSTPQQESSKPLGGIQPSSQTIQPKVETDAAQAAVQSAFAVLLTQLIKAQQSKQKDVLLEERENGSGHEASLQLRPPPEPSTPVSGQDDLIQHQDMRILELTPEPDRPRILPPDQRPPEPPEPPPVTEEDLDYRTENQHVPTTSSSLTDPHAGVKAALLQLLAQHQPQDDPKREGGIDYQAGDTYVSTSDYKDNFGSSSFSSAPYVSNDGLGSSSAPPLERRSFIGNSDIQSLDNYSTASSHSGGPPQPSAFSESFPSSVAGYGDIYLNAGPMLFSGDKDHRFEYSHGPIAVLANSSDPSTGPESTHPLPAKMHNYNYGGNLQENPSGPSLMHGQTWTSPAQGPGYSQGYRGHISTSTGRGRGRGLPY
Serine/threonine-protein kinase PAK 4 (Homo sapiens), sequence (O96013 whole entry, looked up): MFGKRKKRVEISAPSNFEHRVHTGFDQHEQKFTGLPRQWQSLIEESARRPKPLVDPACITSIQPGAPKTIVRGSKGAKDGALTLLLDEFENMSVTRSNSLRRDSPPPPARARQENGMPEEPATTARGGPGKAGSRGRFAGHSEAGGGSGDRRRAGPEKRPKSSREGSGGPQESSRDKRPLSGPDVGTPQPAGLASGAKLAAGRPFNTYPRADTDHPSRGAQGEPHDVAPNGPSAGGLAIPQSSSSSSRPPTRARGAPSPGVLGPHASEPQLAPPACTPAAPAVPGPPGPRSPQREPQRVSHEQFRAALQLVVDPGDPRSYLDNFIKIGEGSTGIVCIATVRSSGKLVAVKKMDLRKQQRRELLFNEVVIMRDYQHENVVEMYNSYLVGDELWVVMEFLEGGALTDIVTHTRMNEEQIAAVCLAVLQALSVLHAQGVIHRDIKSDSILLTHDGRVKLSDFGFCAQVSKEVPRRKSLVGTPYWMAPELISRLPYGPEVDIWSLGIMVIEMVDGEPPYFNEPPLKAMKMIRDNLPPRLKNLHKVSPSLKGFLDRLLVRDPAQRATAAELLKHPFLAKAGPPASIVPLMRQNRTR

inhibition [1]: 0% | fold change (FC) [2]: 0.55 | inhibition [3]: 9%
Structure (SMILES): CNC(=O)c1ccccc1Oc1nc(Nc2cc(OC)c(OC)c(OC)c2)ncc1Br

inhibition [4]: 0% | fold change (FC) [5]: 0
Structure (SMILES): CC(C)[C@H](NC(=O)c1cc(-c2cnn3cc(-c4ccc(OCCN5CCCCC5)cc4)cnc23)cs1)C(F)(F)F

fold change (FC) [6]: 0 | inhibition [7]: 0%
Structure (SMILES): O=C(N[C@@H](C1CC1)C(F)(F)F)c1cc(-c2cnn3cc(-c4ccc(F)cc4)cnc23)cs1
